Literature values, collected in patent publication US20180318238A1, “METHODS FOR REDUCING SEQUELAE OF INTRA-DIALYTIC HYPOTENSION” (priority 2015, published 2018).

Conditions: intravenous, dogs, all doses used; from WO 98/13036

For S-ethylisothiouronium diethylphosphate, the “Effect on arterial blood pressure” value is given as “pronounced hypertensive effect at all doses used”.
